# Patent publication US7585852B2, “Cobalamine derivatives useful for diagnosis and treatment of abnormal cellular proliferation” (Solidago AG, priority 2003, dated 2009)
# Entries after “also recorded” stand apart in the source; their conditions may differ.
# Columns and labels:
# [1] = Biodistribution of radiolabeled cyanocobalamin derivatives in tumor bearing mice; type: in vivo, balb/c mice; conditions: for Tissue distribution: Blood / Tissue distribution: Kidney / Tissue distribution: Tumor / Tissue distribution: Liver: 24 h after i.v. injection of radioactive labeled derivative, tumor bearing mice (melanoma B16-F10), vitamin-free diet, figures use percent of injected radioactivity per gram of tissue; for Tissue distribution: Liver: in %ID/g; for Accumulation in tumor relative to blood / Accumulation in tumor relative to kidney and liver: from Table 1, 24 h after i.v. injection in mice
# Protocol: For in vivo studies and for binding studies to the transport vectors, very high specific activity was demanded. Therefore, 100 μl of the labeled solution were injected to an analytical HPLC system to separate the hot from the cold vitamin derivative. The eluate fraction with the highest gamma activity (ca. 300 μl) was diluted with normal saline to a concentration of 10 μCi per animal before i.v. injection. Separation condition were: acetate buffer, XTerra RP8 column, gradient: 0% methanol (0 min), 30% methanol (15 min), 100% methanol (25 min) for the b and d-derivatives, and the TEAP system as described by Schibli et al. (Bioconjugate Chem. 2000, 343-351) for the other compounds.
# For biodistribution studies with ^57Co-cyanocobalamin, 0.2 μCi/1 ng of the radiolabeled cyanocobalamin is mixed with 180 μl normal saline and injected i.v. in tumor bearing balb/c mice (syngeneic mouse melanoma B16-F10). After a specified time (5 min to 24 h), animals are sacrificed, the organs weighted and counted on a gamma counter. For biodistribution studies with ^99mTc-labeled cyanocobalamin, 10 μCi/0.5 ng of the radiolabelled cyanocobalamin is mixed with normal saline and used as before. For biodistribution with ^111In-labeled cyanocobalamin, 2 μCi/5 ng of the radiolabeled cyanocobalamin is mixed with normal saline and used as before. To study the effect of Vitamin B12 deficient food, the biodistribution of labeled cyanocobalamin is compared in mice fed with normal food with the biodistribution in mice fed with vitamin B12 deficient food for a period of 2 weeks.
# transcobalamin II (TCII) = assay: Gel-shift (gel filtration) assay of radiolabeled cyanocobalamin derivatives with transport protein TC II; type: binding, rabbit; conditions: for Binding to TCII (in words): gel shift assay; for TC II reactivity: radioactive labeled derivative; for Gel filtration peak of the derivative mixed with TCII: Superdex 75 column, free derivative elutes at 1.5 kDa
# Protocol: To test the binding affinity of cobalamin (Cbl) derivatives to TCII, an in vitro test is carried out with partially purified TCII obtained from the blood of rabbits. Recombinant TCII produced with an E. coli expression system can also be used as a substrate.
# TC II is purified by affinity chromatography on a cyanocobalamin-agarose matrix (Sigma), The gel (5 ml) is first washed with 200 ml 50 mM Tris/1 M NaCl, pH 8.0, afterwards with 200 ml 0.1 M glycine/0.1 M glucose/1 M NaCl pH 10, and again with 200 ml 50 mM Tris/1 M NaCl. […] Bound TC II is eluted with 20 ml 4.0 Mguanidine HCl/50 mM Tris pH 8.0, and in a second step with 7.5 M guanidine HCl/50 mM Tris pH 8.0. Most of the bound TC II elutes already with 4 M guanidine HCl. Probes are dialyzed extensively against H2O for 2 days at 4° C. Typical yields are 5-30 nmol/l which translates into 7.5-10 μg of TC II (MW: 50 kDa) per rabbit.
# Transcobalamin II cDNA is expressed in E. coli strain FA113, a K12 derivative with double knock-out in trxB and gor genes, where the cytoplasm forms an oxidizing environment and allows disulfide formation. The transcobalamin II protein contains a PreScission protease site followed by an N-terminal histidine tag. The protein is isolated from soluble fractions of E. coli extracts using nickel chelating sepharose. Cyanocobalamin is removed from the transcobalamin II bound to the chelating column with 8 M urea, and the transcobalamin II is afterwards released by imidazole. In some of the preparations, the His-tag is removed by a specific protease.
# (§1) The interaction of radiolabeled (^57Co, ^99mTc, ^188Re, ^111In) cyanocobalamin derivatives is measured by gel-shift assay. Radiolabeled cyanocobalamin (0.05 ng to 1 ng) is allowed to react with an excess of transport proteins for 15 min at room temperature. This mixture is applied to a gel-filtration column (Superdex75, Amersham Biosciencies) in the running buffer PBS and 0.1% Tween 20. Biologically active cyanocobalamin, which binds to transport proteins, shifts from a molecular weight of about 1.4 kDa to 40-70 kDa, depending on the transport protein. Titration of the binding capacity of the transport proteins is done with ^57Co-cyanocobalamin (ICN Biomedicals GmbH, Germany; 10 μCi/50 ng).
# [2] = molecular target: T1, transcobalamin I (TC I; haptocorrin) (Homo sapiens, UniProt P20061); assay: Gel-shift (gel filtration) assay of radiolabeled cyanocobalamin derivatives with transport protein TC I; type: binding; conditions: Superdex 75 column; free derivative elutes at 1.5 kDa
# T1 construct: As a source of transcobalamin I, saliva of vegetarian human subjects is used; from tissue; host or cells: human saliva (centrifuged, diluted 1:1 with PBS, sterile filtered)
# T1 sequence (P20061 24-433): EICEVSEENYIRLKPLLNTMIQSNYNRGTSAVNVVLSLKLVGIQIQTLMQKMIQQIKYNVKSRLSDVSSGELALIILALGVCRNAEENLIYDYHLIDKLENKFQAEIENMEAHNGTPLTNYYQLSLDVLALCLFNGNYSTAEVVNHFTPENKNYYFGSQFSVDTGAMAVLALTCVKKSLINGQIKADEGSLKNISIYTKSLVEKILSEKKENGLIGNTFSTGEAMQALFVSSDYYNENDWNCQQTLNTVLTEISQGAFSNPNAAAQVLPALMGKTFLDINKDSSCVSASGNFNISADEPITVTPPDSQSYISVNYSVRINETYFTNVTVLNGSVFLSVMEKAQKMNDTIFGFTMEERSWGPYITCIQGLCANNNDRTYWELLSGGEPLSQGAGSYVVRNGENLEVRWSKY
# Protocol: As a source of transcobalamin I, saliva of vegetarian human subjects is used. Saliva is centrifuged at 20'000 rpm 20 min at 4° C., mixed 1:1 with PBS and sterile filtered. The binding capacity of transcobalamin I is usually 10 ng/ml.
# as §1
Tissue distribution: Blood [1] [%ID/g],Tissue distribution: Kidney [1] [%ID/g],Tissue distribution: Tumor [1] [%ID/g],Tissue distribution: Liver [1],Binding to TCII (in words) (transcobalamin II (TCII)),Accumulation in tumor relative to blood [1],Substance,TC II reactivity (transcobalamin II (TCII)),Accumulation in tumor relative to kidney and liver [1],Gel filtration peak of the derivative mixed with TCI [2] [kDa],Gel filtration peak of the derivative mixed with TCII (transcobalamin II (TCII)) [kDa]
0.04,1.08,6.13,0.94,TCII non-binders,five times or more than in blood,Cyanocobalamin-b-butyl-PAMA-OEt [Example 12],−,at least half the amount found in the critical organs kidney and liver,,
0.1,1.36,0.73,1.45,TCII non-binders,five times or more than in blood,Cyanocobalamin-b-ethyl-PAMA-OEt [Example 10],−,at least half the amount found in the critical organs kidney and liver,,
0.25,3.54,2.9,3.90,TCII non-binders,five times or more than in blood,Cyanocobalamin-b-ethyl-Triamine [Example 22],−,at least half the amount found in the critical organs kidney and liver,,
1.2,40,3,8.00,bind to TCII,,Cyanocobalamin-b-hexyl-PAMA-OEt [Example 14],+ (they bind to TCII),,,
2.1,19.9,9.2,21.06,bind to TCII,,Cyanocobalamin-b-propyl-His-OMe [Example 20],+ (they bind to TCII),,,
2.2,16.5,3.6,8.10,bind to TCII,,Cyanocobalamin-c-butyl-PAPAcet [Example 8],+ (they bind to TCII),,,
0.06,10.4,6.8,3.90,TCII non-binders,five times or more than in blood,Cyanocobalamin-d-propyl-PAMA-OEt [Example 18],−,at least half the amount found in the critical organs kidney and liver,,

Substance,Tissue distribution: Blood [1] [%ID/g],Tissue distribution: Kidney [1] [%ID/g],Tissue distribution: Tumor [1] [%ID/g],Tissue distribution: Liver [1],Binding to TCII (in words) (transcobalamin II (TCII)),Accumulation in tumor relative to blood [1],TC II reactivity (transcobalamin II (TCII)),Accumulation in tumor relative to kidney and liver [1],Gel filtration peak of the derivative mixed with TCI [2] [kDa],Gel filtration peak of the derivative mixed with TCII (transcobalamin II (TCII)) [kDa]
Cyanocobalamin-5′-phosphocolamin-His-OMe [Example 25],0.18,116,3.16,20.70,bind to TCII,,+ (they bind to TCII),,,
Cyanocobalamin-b-butyl-PAPAcet [Example 5],2.3,14.1,7.9,9.40,does bind to TCII,,+ (they bind to TCII),,44,60
Cyanocobalamin-b-butyl-aminocarboxymethyl-His-OMe [Example 6],,,,,bind to TCII,,+ (they bind to TCII),,,
Cyanocobalamin-b-propyl-PAMA-OEt [Example 11],0.09,0.39,1.61,0.44,essentially a TCII-non binder; also recorded: TCII non-binders,five times or more than in blood,−,at least half the amount found in the critical organs kidney and liver,44,1.5
